Article PMC4785361, “Insight into determinants of substrate binding and transport in a multidrug efflux protein” (Scientific Reports, 2016)

Biological target: T1, MdtM (Escherichia coli, UniProt P39386)
T1 construct: full-length 410 residues, pBAD/Myc-His A vector (C-terminal Myc-His tag), overproduced in E. coli LMG194, purified in DDM detergent
Assay: biochemical
Type: binding
From the text: intrinsic tryptophan fluorescence quenching on MdtM

T1 sequence (P39386 whole entry): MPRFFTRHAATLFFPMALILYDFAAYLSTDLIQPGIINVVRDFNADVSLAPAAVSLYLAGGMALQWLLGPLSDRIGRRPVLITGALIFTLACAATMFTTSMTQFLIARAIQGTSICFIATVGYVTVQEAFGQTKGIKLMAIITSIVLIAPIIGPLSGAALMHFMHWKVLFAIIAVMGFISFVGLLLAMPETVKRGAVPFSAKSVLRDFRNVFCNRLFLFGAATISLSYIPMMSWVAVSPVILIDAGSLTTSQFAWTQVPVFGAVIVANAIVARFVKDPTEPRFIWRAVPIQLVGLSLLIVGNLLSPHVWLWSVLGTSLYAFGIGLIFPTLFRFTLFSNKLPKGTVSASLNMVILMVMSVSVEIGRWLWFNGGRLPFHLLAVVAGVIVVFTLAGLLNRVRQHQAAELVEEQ

Row | SMILES | Kd
1 | c1ccc([P+](c2ccccc2)(c2ccccc2)c2ccccc2)cc1 [TPP+] | 400 ± 145 nM
2 | O=C(N[C@H](CO)[C@H](O)c1ccc([N+](=O)[O-])cc1)C(Cl)Cl [chloramphenicol, 2,2-dichloro-N-[2-hydroxy-1-hydroxymethyl-2-(4-nitro-phenyl)-ethyl]-acetamide] | 22 ± 4 nM
